Assay results published in patent US9593305B2, “Differentiation of pluripotent stem cells” (Janssen Biotech, Inc., priority 2008, dated 2017).

Experiments:
[1] = system: H1 human embryonic stem cells; assay: Screen of CDK, GSK3 and TRK inhibitors with or without GDF-8, SOX17 and cell number (Example 20, Table 17); assay type: cell-based; conditions: Plate 1; for Cell Number, % of positive control / Sox17 Expression, % of positive control: positive control = Activin A/Wnt3a
Description: Briefly, clusters of H1 human embryonic stem cells were grown on reduced growth factor Matrigel™ (Invitrogen; Cat #356231) coated tissue culture plastic. Cells were passaged using collagenase (Invitrogen; Cat #17104-019) treatment and gentle scraping, washed to remove residual enzyme, and plated with even dispersal at a ratio of 1:1 (surface area) on reduced growth factor […]™ (BD Biosciences; Cat #356231)-coated 96-well black plates (Packard ViewPlates; PerkinElmer; Cat #6005182) using volumes of 100 μl/well. Cells were allowed to attach and then recover log phase growth over a 1 to 3 day time period, feeding daily with MEF conditioned medium supplemented with 8 ng/ml bFGF (R&D Systems; Cat #233-FB). Plates were maintained at 37° C., 5% CO2 in a humidified box throughout the duration of assay.
Screening was conducted using the compounds described in Table 16. […] Compounds were made available as 5 mM stocks in 96-well plate format, solubilized in 100% DMSO (Sigma; Cat #D2650) and stored at −80° C. The library compounds were further diluted to an intermediate concentration of 0.2 mM in 50 mM HEPES (Invitrogen; Cat #15630-080), 20% DMSO and stored at 4° C. Test conditions were performed in triplicate, feeding on alternating days over a four-day assay period. Assay was initiated by aspirating culture medium from each well followed by three washes in PBS (Invitrogen; Cat #14190) to remove residual growth factors. On the first day of assay, test volumes of 200 μl per well were added to each well using DMEM:F12 base medium (Invitrogen; Cat #11330-032) supplemented with 0.5% FCS (HyClone; Cat #SH30070.03) and 100 ng/ml GDF-8 (R&D Systems, Cat #788-G8) plus 2.5 μM compound. A parallel set of test samples were treated in an identical manner but omitting GDF-8 from the medium. On the third day of assay, test volumes of 100 μper well were added to each well using DMEM:F12 base medium supplemented with 2% FCS plus 100 ng/ml GDF-8 (R&D Systems, Cat #788-G8). […] Positive control samples contained the same base medium supplemented with FCS and 100 ng/ml recombinant human activin A (PeproTech; Cat #120-14) throughout the four day assay along with Wnt3a (20 ng/ml) addition on days 1 and 2. Negative control samples contained DMEM:F12 base medium supplemented with FCS.
At the conclusion of four-days of culture, assay plates were washed twice with PBS (Invitrogen; Cat #14190), fixed with 4% paraformaldehyde (Alexis Biochemical; Cat #ALX-350-011) at room temperature for 20 minutes, then washed three times with PBS and permeabilized with 0.5% Triton X-100 (Sigma; Cat #T8760-2) for 20 minutes at room temperature. Cells were washed again three times with PBS and blocked with 4% chicken serum (Invitrogen; Cat #16110082) in PBS for 30 minutes at room temperature. Primary antibody (goat anti-human SOX17; R&D Systems; Cat #AF1924) was diluted 1:100 in 4% chicken serum and added to each well for one hour at room temperature. Alexa Fluor 488 conjugated secondary antibody (chicken anti-goat IgG; Molecular Probes; Cat #AZ1467) was diluted 1:200 in PBS and added to each sample well after washing three times with PBS. To counterstain nuclei, 4 μg/ml Hoechst 33342 (Invitrogen; Cat #H3570) was added for ten minutes at room temperature. Plates were washed once with PBS and left in 100 μl/well PBS for imaging.
Imaging was performed using an IN Cell Analyzer 1000 (GE Healthcare) utilizing the 51008bs dichroic for cells stained with Hoechst 33342 and Alexa Fluor 488. Exposure times were optimized from positive control wells and from untreated negative control wells stained with secondary antibody alone. Images from 15 fields per well were acquired to compensate for any cell loss during the bioassay and subsequent staining procedures. Measurements for total cell number and total SOX17 intensity were obtained from each well using IN Cell Developer Toolbox 1.7 (GE Healthcare) software. […]

[2] = system: CDK, GSK3, and/or TRK signaling pathways; assay: Primary selectivity of the proprietary small molecules (Table 16); conditions: as listed in Table 17
Description: A subset of 14 proprietary small molecules, known to have specificity for the CDK, GSK3, and/or TRK signaling pathways were evaluated for their potential to differentiate human embryonic stem cells to cells expressing markers characteristic of the definitive endoderm lineage.

[3] = system: H1 human embryonic stem cells; assay: Definitive endoderm formation with GDF family members, SOX17 and cell number (Example 13); assay type: cell-based
Description: Stock cultures of human embryonic stem cells (H1 human embryonic stem cell line) were maintained in an undifferentiated, pluripotent state on reduced growth factor […]™ (BD Biosciences; Cat #356231)-coated dishes in MEF conditioned medium with passage on average every four days. Passage was performed by exposing cell cultures to a solution of 1 mg/ml dispase (Invitrogen; Cat #17105-041) for 5 to 7 minutes at 37° C. followed by rinsing the monolayer with MEF conditioned culture medium and gentle scraping to recover cell clusters. Clusters were centrifuged at low speed to collect a cell pellet and remove residual dispase. Cell clusters were split at a 1:3 or 1:4 ratio for routine maintenance culture or a 1:1 ratio for immediate assay. All human ES cell lines were maintained at passage numbers less than 50 and routinely evaluated for normal karyotype and absence of mycoplasma.
Cell clusters were evenly resuspended in MEF conditioned medium supplemented with 8 ng/ml bFGF and seeded onto reduced growth factor […]™-coated 96-well Packard VIEWPLATES (PerkinElmer; Cat #6005182) in volumes of 0.1 ml/well. Daily feeding was conducted by aspirating spent culture medium from each well and replacing with an equal volume of fresh medium. Plates were maintained at 37° C., 5% CO2 throughout the duration of assay.
The assay was initiated by aspirating the culture medium from each well and adding back aliquots (100 μl) of test medium. Test conditions were performed in triplicate over a total four-day assay period, feeding on day 1 and day 3 by aspirating and replacing the medium from each well with fresh test medium. Various members of the GDF family of proteins were obtained for testing as follows: GDF-3 (PeproTech; Cat #120-22); GDF-5 (DePuy Orthopaedics, Inc., a Johnson & Johnson company); GDF-8 (R&D Systems; Cat #788-G8); GDF-10 (R&D Systems; Cat #1543-BP); GDF11 (PeproTech; Cat #120-11); GDF-15 (R&D Systems; Cat #957-GD). On the first day of assay, all wells received an aliquot (80 μl) of basal medium DMEM:F12 medium (Invitrogen; Cat #11330-032) supplemented with 0.5% fetal bovine serum (Hyclone; Cat #SH30070.03). A series of five different control or experimental test samples was created to evaluate activin A or various GDFs in combination with Wnt3a or Compound 34 or Compound 56. These test samples were added in 20 μl aliquots (5× concentrated) to appropriately matched assay wells to yield a final assay volume of 100 μl in each well at the final assay conditions indicated. In the first set of control samples, the following conditions were tested: 1) no additive (i.e. no supplementary growth factor or small molecule); 2) 100 ng/ml activin A (PeproTech; Cat #120-14) in combination with 20 ng/ml Wnt3a (R&D Systems; Cat #1324-WN/CF); 3) 20 ng/ml Wnt3a alone; 4) Compound 34 alone (2.5 μM) without any growth factor or small molecule; 5) Compound 56 alone (2.5 μM) without any growth factor or small molecule. In the second set of test samples, the following conditions were tested in combination with 100 ng/ml GDF3: 1) no additive (i.e. GDF-3 alone); 2) 20 ng/ml Wnt3a; 3) 20 ng/ml Wnt3a with Compound 34 (2.5 μM); 4) Compound 34 (2.5 μM); 5) Compound 56 (2.5 μM); and 6) 20 ng/ml Wnt3a with Compound 56 (2.5 μM). In the third set of test samples, each of the six conditions was combined with 100 ng/ml GDF-5. In the fourth set of test samples, each of the six conditions was combined with 100 ng/ml GDF-8. In the fifth set of test samples, each of the six conditions was combined with 100 ng/ml GDF-10. In the sixth set of test samples, each of the six conditions was combined with 100 ng/ml GDF-11. In the seventh set of test samples, each of the six conditions was combined with 100 ng/ml GDF-15. On the third day of assay, all wells for all test samples, received 100 ng/ml Activin A or 100 ng/ml respective GDF growth factor, without Wnt3a or Compound 34 or Compound 56, diluted into DMEM:F12 medium supplemented with 2% FBS. […]

[4] = compound in combination with GDF8

Molecule: CN(C)CCNC(=O)c1ccc(-c2cnc3ccc(NCc4cccc(Cl)c4)nn23)cc1 [Compound 57, 4-(6-{[(3-Chlorophenyl)methyl]amino}imidazo[1,2-b]pyridazin-3-yl)-N-[2-(dimethylamino)ethyl]benzamide]
- Cell Number, Average Total Cell Number ([1]; compound alone, No GDF8): 1222
- Sox17 Expression, Average Total Intensity ([1]; compound alone, No GDF8): −7.1E+05
- Cell Number, % of positive control ([1]; compound alone, No GDF8): 8.4 % of positive control
- Sox17 Expression, % of positive control ([1]; compound alone, No GDF8): −0.3 % of positive control
- Cell Number, Average Total Cell Number [1, 4]: 2110
- Sox17 Expression, Average Total Intensity [1, 4]: 1.1E+07
- Cell Number, % of positive control [1, 4]: 14.6 % of positive control
- Sox17 Expression, % of positive control [1, 4]: 4.8 % of positive control
- Compound Selectivity [2]: Selective for Trk

Molecule: O=C1COc2cccc(c2)Nc2nccc(n2)Nc2cccc(c2)OCCCN1 [Compound 42, 14,21-Dioxa-2,4,8,18,28-pentaazatetracyclo[20.3.1.1˜3,7˜0.1˜9,13˜]octacosa-1(26), 3(28), 4,6,9(27), 10,12,22,24-nonaen-19-one]
- Cell Number, Average Total Cell Number ([1]; compound alone, No GDF8): 8700
- Sox17 Expression, Average Total Intensity ([1]; compound alone, No GDF8): −2.4E+05
- Cell Number, % of positive control ([1]; compound alone, No GDF8): 60.1 % of positive control
- Sox17 Expression, % of positive control ([1]; compound alone, No GDF8): −0.1 % of positive control
- Cell Number, Average Total Cell Number [1, 4]: 5686
- Sox17 Expression, Average Total Intensity [1, 4]: 4.9E+07
- Cell Number, % of positive control [1, 4]: 39.3 % of positive control
- Sox17 Expression, % of positive control [1, 4]: 21.2 % of positive control
- Compound Selectivity [2]: Selective for CDK

Molecule: N#Cc1cnc2nc1Nc1cccc(c1)OCCNC(=O)c1cccc(c1)N2 [Compound 41, 18-Oxo-14-oxa-2,4,8,17,25-pentaazatetracyclo[17.3.1.1˜3,7˜0.1˜9,13˜]pentacosa-1(23), 3(25), 4,6,9(24), 10,12,19,21-nonaene-6-carbonitrile]
- Cell Number, Average Total Cell Number ([1]; compound alone, No GDF8): 9995
- Sox17 Expression, Average Total Intensity ([1]; compound alone, No GDF8): 5.9E+04
- Cell Number, % of positive control ([1]; compound alone, No GDF8): 69.0 % of positive control
- Sox17 Expression, % of positive control ([1]; compound alone, No GDF8): 0.0 % of positive control
- Cell Number, Average Total Cell Number [1, 4]: 4455
- Sox17 Expression, Average Total Intensity [1, 4]: 3.4E+07
- Cell Number, % of positive control [1, 4]: 30.8 % of positive control
- Sox17 Expression, % of positive control [1, 4]: 14.8 % of positive control
- Compound Selectivity [2]: Selective for GSK

Molecule: CN1CCC(NC(=O)c2ccc(Nc3nccc(N4CCN(C)c5ccccc54)n3)cc2)CC1 [Compound 11, 4-{[4-(4-Methyl-3,4-dihydroquinoxalin-1(2H)-yl)pyrimidin-2-yl]amino}-N-(1-methylpiperidin-4-yl)benzamide]
- Cell Number, Average Total Cell Number ([1]; compound alone, No GDF8): 565
- Sox17 Expression, Average Total Intensity ([1]; compound alone, No GDF8): −1.1E+06
- Cell Number, % of positive control ([1]; compound alone, No GDF8): 3.9 % of positive control
- Sox17 Expression, % of positive control ([1]; compound alone, No GDF8): −0.5 % of positive control
- Cell Number, Average Total Cell Number [1, 4]: 210
- Sox17 Expression, Average Total Intensity [1, 4]: −4.9E+05
- Cell Number, % of positive control [1, 4]: 1.4 % of positive control
- Sox17 Expression, % of positive control [1, 4]: −0.2 % of positive control
- Compound Selectivity [2]: Selective for CDK

B1: Wnt3a: Wnt3a recombinant protein (R&D Systems) (protein, UniProt P56704 19-352, looked up)
Protein Wnt-3a: SYPIWWSLAVGPQYSSLGSQPILCASIPGLVPKQLRFCRNYVEIMPSVAEGIKIGIQECQHQFRGRRWNCTTVHDSLAIFGPVLDKATRESAFVHAIASAGVAFAVTRSCAEGTAAICGCSSRHQGSPGKGWKWGGCSEDIEFGGMVSREFADARENRPDARSAMNRHNNEAGRQAIASHMHLKCKCHGLSGSCEVKTCWWSQPDFRAIGDFLKDKYDSASEMVVEKHRESRGWVETLRPRYTYFKVPTERDLVYYEASPNFCEPNPETGSFGTRDRTCNVSSHGIDGCDLLCCGRGHNARAERRREKCRCVFHWCCYVSCQECTRVYDVHTCK
- SOX17 expression, reagent alone ([3]; 20 ng/ml Wnt3a or 2.5 μM compound alone, four days): failed to induce SOX17 expression

B2: GDF-3: member of the GDF family of proteins (PeproTech) (protein, UniProt Q9NR23 251-364, looked up)
Growth/differentiation factor …: AAIPVPKLSCKNLCHRHQLFINFRDLGWHKWIIAPKGFMANYCHGECPFSLTISLNSSNYAFMQALMHAVDPEIPQAVCIPTKLSPISMLYQDNNDNVILRHYEDMVVDECGCG
- SOX17 expression, GDF growth factor substituting for activin A ([3]; 100 ng/ml GDF, alone or with Wnt3a, Compound 34 or Compound 56, four days): induced weak expression of SOX17
